Experiment [1] relates to Escherichia coli. In words: Inhibitory activity (apE=log(1/EII50)) against dihydropteroate synthase from Escherichia coli.
Experiment [2] relates to Escherichia coli. Kind of experiment: Inhibitory activity (Enzyme inhibition index) against dihydropteroate synthase from Escherichia coli.

Several values for one entry are separate records, joined by “and”; a condition that tells them apart may be missing. Identical values can stand only once.

As for `COc1cc(OC)c(S(=O)(=O)c2ccc(N)cc2)c(OC)c1`, the apE with Escherichia coli [1] was -1.11. In addition, the EII50 in the experiment with Escherichia coli [2] was found to be 12.9.
As to `Nc1ccc(S(=O)(=O)c2c(O)cc(O)cc2O)cc1`, in the experiment on Escherichia coli [2], the EII50 was 1.91 and 1.46.
Take `COc1cc(C)cc(C)c1S(=O)(=O)c1ccc(N)cc1`: in the experiment on Escherichia coli [1], the apE is -0.48. The same compound registered an EII50 in the experiment on Escherichia coli [2] of 3.02.
Consider `Cc1cc(O)cc(C)c1S(=O)(=O)c1ccc(N)cc1`, for which the apE in the experiment on Escherichia coli [1] was 0.29 and 0.59. For the same compound, the EII50 with Escherichia coli [2] was 0.51 and 0.25.
On to `Nc1ccc(S(=O)(=O)c2ccc(Cl)cc2Cl)cc1`, for which, in the experiment with Escherichia coli [1], the apE is -0.35. Also, in the experiment on Escherichia coli [2], the EII50 is 2.24.
The corresponding values for `COc1cc(C)c(S(=O)(=O)c2ccc(N)cc2)c(C)c1` are -0.25 and 1.77.
In the experiment on Escherichia coli [1], `Nc1ccc(S(=O)(=O)c2ccc(N)cc2)cc1` returned an apE of -0.42. The EII50 in the experiment with Escherichia coli [2] was determined as 2.64.
In the experiment on Escherichia coli [1], `Nc1ccc(S(=O)(=O)c2c(Cl)cc(Cl)cc2Cl)cc1` had an apE of -0.52. Also, the EII50 in the experiment on Escherichia coli [2] was 3.31.
The compound `COc1ccc(S(=O)(=O)c2ccc(N)cc2)c(OC)c1` gave an apE with Escherichia coli [1] of -0.51. Besides, the EII50 in the experiment on Escherichia coli [2] was 3.21.
In the case of `COc1ccc(S(=O)(=O)c2ccc(N)cc2)c(C)c1`, the apE in the experiment with Escherichia coli [1] is -0.25. The compound also yielded an EII50 with Escherichia coli [2] of 1.77.
On to `Nc1ccc(S(=O)(=O)c2ccc(O)cc2Cl)cc1`, for which, in the experiment on Escherichia coli [1], the apE is 0.59 and 0.58. In the experiment with Escherichia coli [2], this compound displayed an EII50 of 0.26.
In the experiment with Escherichia coli [1], `Cc1cc(C)c(S(=O)(=O)c2ccc(N)cc2)c(C)c1` showed an apE of -0.23. For the same compound, the EII50 in the experiment with Escherichia coli [2] is 1.69.
The corresponding values for `Nc1ccc(S(=O)(=O)c2ccc([N+](=O)[O-])cc2[N+](=O)[O-])cc1` are -1.56 and 36.3.
Take `Cc1cc(O)ccc1S(=O)(=O)c1ccc(N)cc1`: the apE in the experiment on Escherichia coli [1] was 0.66 and 0.47. Further, the EII50 with Escherichia coli [2] was 0.23 and 0.34.
Compound `Nc1ccc(S(=O)(=O)c2ccc(N)cc2N)cc1` returned an apE in the experiment with Escherichia coli [1] of -0.2. In the experiment with Escherichia coli [2], this compound returned an EII50 of 1.59.
`Nc1ccc(S(=O)(=O)c2ccc(O)cc2O)cc1`: the apE in the experiment with Escherichia coli [1] was 0.29 and 0.15. Besides, in the experiment with Escherichia coli [2], the EII50 was 0.51 and 0.71.
`Cc1ccc(S(=O)(=O)c2ccc(N)cc2)c(C)c1` had an apE with Escherichia coli [1] of -0.28. The compound further returned an EII50 in the experiment on Escherichia coli [2] of 1.89.

These data come from ChEMBL document CHEMBL1124359, “Quantitative structure-activity relationships in dihydropteroate synthase inhibition by multisubstituted sulfones. Design and synthesis of some new derivatives with improved potency” (J Med Chem, 1989).
